Biological target: Recombinant human glycogen synthase kinase 3 beta (Homo sapiens, UniProt P49841)
Assay: GSK-3 beta inhibition assay (33P-ATP, GS-2 peptide substrate, phosphocellulose filter counting)
Format: biochemical
Conditions: result in percentage of enzyme activity (lower = more inhibition); for activity at 50 µM: test compound at 50µM; for activity at 25 µM: test compound at 25µM
Method: The GSK-3 beta activity of the compounds of formula (I) according to the present invention was determined by incubation of a mixture of recombinant human GSK-3 enzyme, a phosphate source and GSK-3 substrate in the presence and in the absence of the corresponding test compound, and by measuring the GSK-3 activity of this mixture. The compounds where tested at final concentrations of 25 and 50 µM.
Recombinant human glycogen synthase kinase 3 beta was assayed in MOPS 8 mM pH 7.3, EDTA 0.2 mM, MgCl2 10 mM and sodium orthovanadate 0.25 mM in the presence of 62.5 µM of Phospho-Glycogen Synthase Peptide-2 (GS-2), 0.5 µCi gamma-^33P-ATP and unlabelled ATP at a final concentration of 12.5 µM. The final assay volume was 20 µl. After incubation for 30 minutes at 30 °C, 15 µl aliquots were spotted onto P81 phosphocellulose papers. Filters were washed four times for at least 10 minutes each and counted with 1.5 ml of scintillation cocktail in a scintillation counter.
The compounds of formula (I) of the present invention where submitted to the above indicated assays, in order to determine both their GSK-3 inhibition activity and BACE activity inhibition. The results are indicated in Table I, in percentage of the respective enzyme activity.

Chain of Recombinant human glycogen synthase kinase 3 beta (P49841 whole entry): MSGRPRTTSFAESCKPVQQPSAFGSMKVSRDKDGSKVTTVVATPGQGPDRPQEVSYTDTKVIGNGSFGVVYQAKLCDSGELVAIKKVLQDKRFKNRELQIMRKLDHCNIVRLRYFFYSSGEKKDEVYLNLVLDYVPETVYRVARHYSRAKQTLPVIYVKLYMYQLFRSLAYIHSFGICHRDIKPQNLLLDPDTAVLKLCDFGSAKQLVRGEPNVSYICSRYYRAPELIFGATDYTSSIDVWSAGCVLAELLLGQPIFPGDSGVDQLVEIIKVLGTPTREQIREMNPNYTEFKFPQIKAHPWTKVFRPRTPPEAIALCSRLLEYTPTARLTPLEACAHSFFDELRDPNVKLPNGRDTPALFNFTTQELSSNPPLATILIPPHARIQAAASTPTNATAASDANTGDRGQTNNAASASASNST

activity at 25 µM [%]	Compound	activity at 50 µM [%]
	CC(C)(C)[Si](OCCCc1ccco1)(c1ccccc1)c1ccccc1 [tert-Butyl-(3-furan-2-yl-propoxy)-diphenyl-silane]	33.5
	CC(C)(C)[Si](OCCc1ccco1)(c1ccccc1)c1ccccc1 [tert-Butyl-(2-furan-2-yl-ethoxy)-diphenyl-silane]	47.6
83.7	CCOC(=O)C=C(C)CCCc1ccoc1 [6-Furan-3-yl-3-methyl-hex-2-enoic acid ethyl ester]	67.4
	CC(C)(C)[Si](OCC(O)c1ccco1)(c1ccccc1)c1ccccc1 (stereo not shown) [2-(tert-Butyl-diphenyl-silanyloxy)-1-furan-2-yl-ethanol]	48.6
	CC(C)(C)[Si](OCCCSCc1ccco1)(c1ccccc1)c1ccccc1 [tert-Butyl-[3-(furan-2-ylmethylsulfanyl)-propoxy]-diphenyl-silane]	17.4
45	CC(=CC=CC(C)CCC=C(C)COC(=O)C(C)(C)C)CCCc1ccoc1 (stereo not shown) [2,2-Dimethyl-propionic acid 13-furan-3-yl-2,6,10-trimethyl-trideca-2,7,9-trienyl ester]	27
61.1	OCC=Cc1ccoc1 [3-Furan-3-yl-prop-2-en-1-ol]	55.6
	CC(C)(C)[Si](OCCCCCc1ccco1)(c1ccccc1)c1ccccc1 [tert-Butyl-(5-furan-2-yl-pentyloxy)-diphenyl-silane]	16.1
	CC(C)(C)[Si](OCCCCCCc1ccco1)(c1ccccc1)c1ccccc1 [tert-Butyl-(6-furan-2-yl-hexyloxy)-diphenyl-silane]	5.08
83.7	CC(=CCCC(C)C=CC=C(C)CCCc1ccoc1)CO (stereo not shown) [13-Furan-3-yl-2,6,10-trimethyl-trideca-2,7,9-trien-1-ol]	61.2

Compound	activity at 25 µM [%]	activity at 50 µM [%]
CC(=CC=CC(C)CCCO[Si](c1ccccc1)(c1ccccc1)C(C)(C)C)CCCc1ccoc1 (stereo not shown) [tert-Butyl-(11-furan-3-yl-4,8-dimethyl-undeca-5,7-dienyloxy)-diphenyl-silane]	29	14

Source: patent EP1939191A1, “Furan derivatives, method of synthesis and uses thereof” (Neuropharma S.A., priority 2006, dated 2008)
